Results taken from patent publication US20250163047A1, “HETEROCYCLIC COMPOUNDS, COMPOSITIONS THEREOF, AND METHODS OF TREATMENT THEREWITH” (BeiGene, Ltd., priority 2022, published 2025).

What was measured:
Cbl-b (aa36-427) [1] = target: T1, Cbl-b (aa36-427) (Homo sapiens, UniProt Q13191); assay: Biotin-labelled Cbl-b biochemical assay (CBLB/E2-Ub binding, HTRF); details: 5.0 nM biotin labelled Cbl-b
T1 construct: Cbl-b (aa36-427, in-house); made in house
Procedure: (§1) The assay in the absence of a Cbl-b/Cbl inhibitor, where phosphorylation of Cbl-b/Cbl by the Src kinase allows UbcH5B-Ub to bind to Cbl-b/Cbl and brings the Bodipy-Fluorescein tagged ubiquitin in proximity to the streptavidin-terbium bound to the N-terminal biotinylated Avi-tagged Cbl-b/Cbl. […] The lack of a FRET signal indicates Cbl-b/Cbl is inhibited by the Cbl-b/Cbl inhibitor.
(§2) 5.0 nM recombinant biotin labelled Cbl-b was pre-incubated with a serial dilution of compounds (maximum concentration is 100 μM, 3-fold serially diluted, 16 points) at room temperature for 1.5 hour in an assay buffer containing 50 mM HEPES, pH 7.0, 100 mM NaCl, 0.01% BSA, 1 mM DTT, 0.01% Triton X-100. Then 25 nM in-house UbcH5B-Ub conjugate protein, 60 nM SRC (aa251-536, in-house), 0.5 mM ATP, 5 mM MgCl2 and Streptavidin-Tb cryptate (Cat: 610SATLB, Cisbio Bioassays) were added to plate and further incubated at room temperature for 2 hours.

Cbl (aa49-434) [2] = target: T2, Cbl (aa49-434) (Homo sapiens, UniProt P22681); assay: Biotin-labelled Cbl biochemical assay (CBL/E2-Ub binding, HTRF); details: 5.0 nM biotin labelled Cbl
T2 construct: Cbl (aa49-434, in-house); made in house
T2 sequence (P22681 49-434): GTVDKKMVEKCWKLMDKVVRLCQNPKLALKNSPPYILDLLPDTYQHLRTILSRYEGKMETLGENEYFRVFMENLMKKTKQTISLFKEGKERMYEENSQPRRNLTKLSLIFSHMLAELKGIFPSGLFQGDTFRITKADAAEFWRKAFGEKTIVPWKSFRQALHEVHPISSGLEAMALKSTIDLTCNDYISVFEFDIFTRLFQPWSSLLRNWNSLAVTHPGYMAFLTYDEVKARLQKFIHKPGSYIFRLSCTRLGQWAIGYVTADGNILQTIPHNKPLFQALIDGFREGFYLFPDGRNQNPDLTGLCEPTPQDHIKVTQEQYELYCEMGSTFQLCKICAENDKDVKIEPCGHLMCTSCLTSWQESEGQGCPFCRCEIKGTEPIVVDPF
Procedure: as §1
as §2, with “labelled Cbl” for “labelled Cbl-b”, “100 µM,” for “100 μM,”, “Then 10” for “Then 25”

Cbl (aa49-434) [3] = target: T2, Cbl (aa49-434); assay: Co-expressed Cbl with BirA biochemical assay (CBL/E2-Ub binding, HTRF); details: 0.6 nM Cbl co-expressed with BirA, read-out: co-express CBL/E2-Ub-binding assay IC50
Description: as §1

Cbl-b (aa36-427) [4] = target: T1, Cbl-b (aa36-427); assay: Co-expressed Cbl-b with BirA biochemical assay (CBLB/E2-Ub binding, HTRF); details: 0.6 nM Cbl-b co-expressed with BirA, HTRF; read-out: co-express CBLB/E2-Ub-binding assay IC50
Description: as §1

T1 sequence (Q13191 36-427): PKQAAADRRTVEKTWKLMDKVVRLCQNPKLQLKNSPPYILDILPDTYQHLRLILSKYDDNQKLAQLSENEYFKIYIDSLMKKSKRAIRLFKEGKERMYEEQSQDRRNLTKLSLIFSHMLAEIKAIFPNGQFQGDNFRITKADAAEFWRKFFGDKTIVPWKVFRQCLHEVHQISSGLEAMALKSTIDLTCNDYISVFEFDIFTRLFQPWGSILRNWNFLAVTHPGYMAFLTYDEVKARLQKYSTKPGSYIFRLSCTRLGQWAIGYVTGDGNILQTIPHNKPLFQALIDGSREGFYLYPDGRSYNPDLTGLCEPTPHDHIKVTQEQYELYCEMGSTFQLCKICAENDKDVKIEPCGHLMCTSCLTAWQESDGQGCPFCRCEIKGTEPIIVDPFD

C[C@H]1CCCN(Cc2cc(C(=O)Nc3cccc([C@]4(c5nncn5C)C[C@@H](C)C4)c3)nc3c2CC[C@@H]3C)C1 (single isomer, unassigned) [Compound C4, (S)-7-methyl-N-(3-((1s,3R)-3-methyl-1-(4-methyl-4H-1,2,4-triazol-3-yl)cyclobutyl)phenyl)-4-(((S)-3-methylpiperidin-1-yl)methyl)-6,7-dihydro-5H-cyclopenta[b]pyridine-2-carboxamide or (R)-7-methyl-N-(3-((1s,3S)-3-methyl-1-(4-methyl-4H-1,2,4-triazol-3-yl)cyclobutyl)phenyl)-4-(((S)-3-methylpiperidin-1-yl)methyl)-6,7-dihydro-5H-cyclopenta[b]pyridine-2-carboxamide]
IC50 (Cbl-b (aa36-427) [1]): 16.2 nM
IC50 (Cbl (aa49-434) [2]): 76 nM

C[C@H]1CCCN(Cc2cc(C(=O)Nc3cccc([C@]4(c5nncn5C)C[C@H](C)C4)c3)c3nccn3c2)C1 [Compound A2, N-(3-((1r,3S)-3-methyl-1-(4-methyl-4H-1,2,4-triazol-3-yl)cyclobutyl)phenyl)-6-(((S)-3-methylpiperidin-1-yl)methyl)imidazo[1,2-a]pyridine-8-carboxamide]
IC50 (Cbl-b (aa36-427) [1]): 3.26 nM
IC50 (Cbl (aa49-434) [2]): 23 nM

CC1CCc2c(CN3CCC[C@H](C)C3)cc(C(=O)Nc3cccc([C@]4(c5nncn5C)C[C@@H](C)C4)c3)nc21 (stereo partly drawn) [Compound C2, 7-methyl-N-(3-((1s,3R)-3-methyl-1-(4-methyl-4H-1,2,4-triazol-3-yl)cyclobutyl)phenyl)-4-(((S)-3-methylpiperidin-1-yl)methyl)-6,7-dihydro-5H-cyclopenta[b]pyridine-2-carboxamide]
IC50 (Cbl-b (aa36-427) [1]): 11.9 nM
IC50 (Cbl (aa49-434) [2]): 28.8 nM

C[C@H]1CCCN(Cc2cc(C(=O)Nc3cccc([C@]4(c5nncn5C)C[C@@H](C)C4)c3)c3nccn3c2)C1 [Compound A1, N-(3-((1s,3R)-3-methyl-1-(4-methyl-4H-1,2,4-triazol-3-yl)cyclobutyl)phenyl)-6-(((S)-3-methylpiperidin-1-yl)methyl)imidazo[1,2-a]pyridine-8-carboxamide]
IC50 (Cbl-b (aa36-427) [1]): 5.36 nM
IC50 (Cbl (aa49-434) [2]): 31.8 nM

C[C@H]1CCCN(Cc2cc(C(=O)Nc3cccc([C@]4(c5nncn5C)C[C@@H](C)C4)c3)nc3c2CC[C@@H]3C)C1 (single isomer, unassigned) [Compound C3, (S)-7-methyl-N-(3-((1s,3R)-3-methyl-1-(4-methyl-4H-1,2,4-triazol-3-yl)cyclobutyl)phenyl)-4-(((S)-3-methylpiperidin-1-yl)methyl)-6,7-dihydro-5H-cyclopenta[b]pyridine-2-carboxamide or (R)-7-methyl-N-(3-((1s,3S)-3-methyl-1-(4-methyl-4H-1,2,4-triazol-3-yl)cyclobutyl)phenyl)-4-(((S)-3-methylpiperidin-1-yl)methyl)-6,7-dihydro-5H-cyclopenta[b]pyridine-2-carboxamide]
IC50 (Cbl-b (aa36-427) [1]): 4.8 nM
IC50 (Cbl (aa49-434) [2]): 21.7 nM

CC1CC(c2cccc(NC(=O)c3cc(CN4CCC[C@H](C)C4)c4c(n3)CCC4)c2)(c2nncn2C)C1 (stereo partly drawn) [Compound C1, (S)—N-(3-(3-methyl-1-(4-methyl-4H-1,2,4-triazol-3-yl)cyclobutyl)phenyl)-4-((3-methylpiperidin-1-yl)methyl)-6,7-dihydro-5H-cyclopenta[b]pyridine-2-carboxamide]
IC50 (Cbl-b (aa36-427) [1]): 11 nM
IC50 (Cbl (aa49-434) [2]): 60 nM

C[C@@H]1CN(Cc2cc(C(=O)Nc3cccc([C@]4(c5nncn5C)C[C@@H](CC#N)C4)c3)c3nccn3c2)CCO1 [Compound A5, N-(3-((1s,3S)-3-(cyanomethyl)-1-(4-methyl-4H-1,2,4-triazol-3-yl)cyclobutyl)phenyl)-6-(((R)-2-methylmorpholino)methyl)imidazo[1,2-a]pyridine-8-carboxamide]
IC50 (Cbl-b (aa36-427) [1]): 138 nM
IC50 (Cbl (aa49-434) [2]): 914 nM

C[C@H]1CCCN(Cc2cc(C(=O)Nc3cccc([C@]4(c5nncn5C)C[C@@H](CC#N)C4)c3)nc3c2CCC3(F)F)C1 [Compound C6, N-(3-((1s,3R)-3-(cyanomethyl)-1-(4-methyl-4H-1,2,4-triazol-3-yl)cyclobutyl)phenyl)-7,7-difluoro-4-(((S)-3-methylpiperidin-1-yl)methyl)-6,7-dihydro-5H-cyclopenta[b]pyridine-2-carboxamide]
IC50 (Cbl-b (aa36-427) [1]): 3.4 nM
IC50 (Cbl (aa49-434) [2]): 48 nM

C[C@H]1CCCN(Cc2cc(C(=O)Nc3cccc([C@]4(c5nncn5C)C[C@@H](CC#N)C4)c3)c3nccn3c2)C1 [Compound A3, N-(3-((1s,3R)-3-(cyanomethyl)-1-(4-methyl-4H-1,2,4-triazol-3-yl)cyclobutyl)phenyl)-6-(((S)-3-methylpiperidin-1-yl)methyl)imidazo[1,2-a]pyridine-8-carboxamide]
IC50 (Cbl-b (aa36-427) [1]): 5.8 nM
IC50 (Cbl (aa49-434) [2]): 60.1 nM
IC50 (Cbl (aa49-434) [3]): 47 nM
IC50 (Cbl-b (aa36-427) [4]): 7.1 nM

C[C@H]1CCCN(Cc2cc(C(=O)Nc3cccc([C@]4(c5nncn5C)C[C@@H](C)C4)c3)nc3c2CCC3(F)F)C1 [Compound C5, 7,7-difluoro-N-(3-((1s,3R)-3-methyl-1-(4-methyl-4H-1,2,4-triazol-3-yl)cyclobutyl)phenyl)-4-(((S)-3-methylpiperidin-1-yl)methyl)-6,7-dihydro-5H-cyclopenta[b]pyridine-2-carboxamide]
IC50 (Cbl-b (aa36-427) [1]): 8.3 nM
IC50 (Cbl (aa49-434) [2]): 29.1 nM

C[C@H]1CCCN(Cc2cc(C(=O)Nc3cccc([C@]4(Cc5nncn5C)C[C@@H](C#N)C4)c3)c3nccn3c2)C1 [Compound A4, N-(3-((1r,3S)-3-cyano-1-((4-methyl-4H-1,2,4-triazol-3-yl)methyl)cyclobutyl)phenyl)-6-(((S)-3-methylpiperidin-1-yl)methyl)imidazo[1,2-a]pyridine-8-carboxamide]
IC50 (Cbl-b (aa36-427) [1]): 3.3 nM
IC50 (Cbl (aa49-434) [2]): 28.7 nM
